The assay relates to CEM cells HIV-1 protection, formazan growth assay. Description: NCI AIDS Antiviral Assay. Particulars: for IC50: measured here: growth of uninfected CEM cells. In outline:
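Protection of CEM cells against HIV-1 was scored from cell growth (soluble formazan) across five concentrations, with parallel uninfected cells. Lack of protection may reflect toxicity.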

“And” between values parts separate entries of the source, which are not always exact repeats. Equal values may be shown once. The source made the active and inactive calls.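 Rule for the calls: active = compounds giving half or more protection of infected cells from virus-caused growth loss, again on retest; inactive = the rest.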 Where only a bound is given, the exact number is not on record here.

Take `NC(=O)N/N=C(\CC1OC(=O)c2ccccc21)c1ccco1` (configuration not stated): the EC50 was more than 832 µM and the IC50 was more than 832 µM. Consider `CC(C)=NNC=N/C(C#N)=C(\N)C#N`, for which the EC50 was more than 200 µM and the IC50 is more than 200 µM. `COCc1cn(C2CCC(CO)O2)c(=O)nc1N` (configuration not stated): the EC50 was more than 490 µM and the IC50 was more than 490 µM. Turning to `CC(=O)Nc1c(C#N)c2n(c1C(=O)Nc1ccc(C)cc1)CCC2`, the EC50 is more than 100 µM and the 50% inhibitory concentration (IC50) was more than 100 µM. On to `COc1cccc2c(=O)oc(-c3ccccc3C)nc12`, for which the EC50 was more than 200 µM and the IC50 is 45.7 µM. For `CCOC(=O)/C=C1\CCCn2c1ncc(C(=O)OCC)c2=O` the same measures were more than 200 µM and 3.63 µM. Take `Cc1c2n(c(=O)[nH]c1=O)C1OC(CO)C(O2)C1O` (configuration not stated): the EC50 is more than 200 µM and the IC50 was more than 200 µM. In the case of `COC(=O)c1cc(C(=O)c2cc(Br)c(OC)c(C(=O)OC)c2)cc(Br)c1OC`, the EC50 is more than 200 µM and the IC50 turned out to be 67.6 µM. For the compound `COC(=O)CNC(=O)CSc1nnc(COc2ccc(Cl)cc2)n1-c1ccccc1`, the EC50 was more than 200 µM and the half-inhibitory concentration (IC50) worked out at 60.3 µM. For `C=C1C(=O)OC2/C=C(\COC(C)=O)CCC(OC(C)=O)C3=CC(OC3=O)C12` (configuration not stated) the same measures were more than 36.3 µM and 7.24 µM. Take `Oc1ccc(C2(c3ccc(O)cc3)CCCC2)cc1`: the EC50 is more than 200 µM and the IC50 is 30.9 µM. In the same order, the values of `CC(NC(=O)/C(C#N)=C/c1ccc2[nH]ccc2c1)c1ccccc1` (configuration not stated) are more than 42.7 µM and more than 42.7 µM. In the case of `COc1cc2c(cc1O)[C@@H]1Cc3c(cc(OC)c(OC)c3Oc3cc4c(cc3OC)CCN(C)[C@@H]4Cc3ccc(O)cc3)[C@H](C2)N1C`, the EC50 was more than 200 µM and the IC50 amounted to 15.5 µM. For `Cc1cn([C@H]2C[C@@H]3[C@@H](COC(CCl)N3O)O2)c(=O)[nH]c1=O` (some centres not stated) the same measures were more than 200 µM and 31.6 µM. In the same order, the values of `CCOc1cnc([C@H]2CCC3[C@@H]4CC=C5C[C@@H](OC(=O)CCC(=O)O)CC[C@]5(C)C4CC[C@@]32C)s1` (some centres not stated) are more than 50.1 µM and 32.4 µM.

`CSc1nnc2n(C)c3c(=O)n(C)c(=O)n(C)c3n12`: the EC50 is more than 200 µM and the concentration for half-maximal inhibition (IC50) is more than 200 µM. For the compound `CC1(C)CNC(=O)C(C)(C2(C)NC(C)(C)CNC2=O)N1` (configuration not stated), the EC50 was more than 200 µM and the IC50 was more than 200 µM. For the compound `O[C@@]1(C#Cc2ccc3c(c2)OCO3)CCC[C@H]1NCc1ccccc1`, the EC50 is more than 200 µM and the IC50 is 36.3 µM. For `CC1CCC(O)C(C(O)CC2CC(=O)NC(=O)C2)C1` (configuration not stated) the same measures were more than 200 µM and more than 200 µM. In the same order, the values of `Cc1ccc(S(=O)(=O)Nn2c(-c3ccccc3)c(C#N)c(-c3ccc(N(C)C)cc3)c(C#N)c2=O)cc1` are more than 100 µM and 35.5 µM.

Regarding `[N-]=[N+]=Nc1c(C=O)c(=O)n(-c2ccccc2)c2ccccc12`, the EC50 is more than 200 µM and the IC50 is 21.9 µM. For the compound `COc1ccc(NC(=O)C2=CC(=O)c3ccc(O)cc3C2=O)c(OC)c1`, the EC50 is 75.9 µM and the half-inhibitory concentration (IC50) worked out at 708 µM. In the case of `COc1ccc2nc(CC(C)C)c3c(c2c1)-c1ccccc1C3=O`, the EC50 was more than 11.2 µM and the IC50 was more than 11.2 µM.

Turning to `NC(=O)OCc1c(-c2ccccc2)nn(-c2ccccc2)c1COC(N)=O`, the EC50 is more than 200 µM and the IC50 was more than 200 µM. On to `CN(C)CCCNC(=O)c1cc(NC(=O)c2cc(NC(=O)[C@@H]3C[C@H]3C(=O)Nc3cc(C(=O)Nc4cc(C(=O)NCCCN(C)C)n(C)c4)n(C)c3)cn2C)cn1C`, for which the outcome was inactive.

Regarding `CSCCC(NC(c1ccccc1)c1ccccc1)[P+](=O)O` (configuration not stated), the EC50 was more than 200 µM and the IC50 was more than 200 µM. With `N#Cc1nc(-c2cccs2)oc1N`, the EC50 was more than 200 µM and the IC50 is more than 200 µM. With `O=C(OCc1ccccc1)N1CCNCCNCCN(C(=O)OCc2ccccc2)CCNCC1`, the EC50 was more than 200 µM and the IC50 is 112 µM.

`CP(=O)(O)C(N)c1ccccc1` (configuration not stated): the EC50 is more than 200 µM and the IC50 was more than 200 µM.

Regarding `COC(=O)[C@H]1[C@H]2C[C@@H]3c4[nH]c5cccc(OC)c5c4CCN3C[C@H]2CC[C@H]1O`, the EC50 is more than 200 µM and the IC50 is more than 200 µM. Regarding `CCn1c(N)c(N=O)c(=O)n(C)c1=O`, the EC50 is more than 200 µM and the IC50 is more than 200 µM.

For `OCCNCCN=C1CCC(=NCCNCCO)CC1`, the EC50 was more than 200 µM and the IC50 was found to be 32.4 µM.

On to `CC[N+]12CN3CN(CN(C3)C1)C2`, for which the EC50 was more than 851 µM and the IC50 was determined as 437 µM. Turning to `Cc1cc(C)c(-n2c(-c3ccccc3)cs/c2=N\N=C2C=C(C(C)(C)C)C(=O)C(C(C)(C)C)=C2)c(C)c1`, the EC50 is more than 14.1 µM and the IC50 was more than 14.1 µM. `CCOC(=O)CCCNC(=O)CCCCC(=O)N(C)C`: the EC50 was more than 200 µM and the IC50 is more than 200 µM.

Regarding `O=C1OC(c2cccc3ccc(Br)cc23)c2ccccc21` (configuration not stated), the EC50 is 27.5 µM and the IC50 was determined as 52.5 µM.

Regarding `CC(=O)Nc1ccc2[nH]c(C(=O)N3CC(CCl)c4c3cc(N)c3ccccc43)cc2c1` (configuration not stated), the EC50 is more than 0.2 µM and the IC50 amounted to 0.00933 µM. In the case of `C=C1C(=O)[C@]23C[C@H]1CC[C@H]2[C@@]12CO[C@@H](O)[C@@H]1C(C)(C)[C@@H](O)C[C@@H]2OC3=O`, the EC50 is more than 692 µM and the IC50 is 26.3 µM. Take `O=C(CC1=Nc2nnc(CCCCCCCc3nnc4n3C(=O)C(CC(=O)c3ccccc3)=N4)n2C1=O)c1ccccc1`: the EC50 was more than 1.82 µM and the half-inhibitory concentration (IC50) was more than 1.82 µM. Regarding `Cc1ncc([N+](=O)[O-])n1CCNCCCn1ccnc1[N+](=O)[O-]`, the EC50 is more than 200 µM and the half-maximal inhibitory concentration (IC50) was more than 200 µM.

Turning to `CN(C)c1nc(=NCc2cccnc2)ss1`, the EC50 is more than 200 µM and the IC50 is 11.5 µM. `COC(=O)CCC(C)C1CCC2C3CC[C@@H]4CC(CO)CCC4(C)C3CCC12C` (some centres not stated): the EC50 is more than 6.76 µM and the IC50 is more than 6.76 µM. In the case of `CCCCCCCCCOC(=S)NCCCCC`, the outcome was inactive. Take `Cc1ccc(S(=O)(=O)N/N=C/C(=C/c2ccc(Cl)cc2)CC(/C=N/NS(=O)(=O)c2ccc(C)cc2)=C\c2ccc(Cl)cc2)cc1`: the EC50 was more than 200 µM and the IC50 worked out at 3.89 µM. With `CC(C)CCCC(C)[C@H]1CC[C@H]2[C@@H]3CC[C@H]4C[C@@H](CCC=C(c5cc(Cl)c(OCc6ccc(B(O)O)cc6)c(C(=O)O)c5)c5cc(Cl)c(OCc6ccc(B(O)O)cc6)c(C(=O)O)c5)CC[C@]4(C)[C@H]3CC[C@]12C` (some centres not stated), the EC50 is 5.89 µM and the half-maximal inhibitory concentration (IC50) stood at 93.3 µM. In the same order, the values of `Cc1ccc(C(=O)Oc2ccccc2)cc1N=NN(C)C` are more than 25.7 µM and more than 25.7 µM. Take `C/C(=N/NC(=S)N1CCN(C(=S)N/N=C(/C)c2ccccn2)CC1)c1ccccn1`: the EC50 was more than 200 µM and the IC50 turned out to be 3.98 µM. Consider `CCCCCCCCCCCCCCCCOP(=O)(O)OCC(N)C(=O)O` (configuration not stated), for which the EC50 was more than 200 µM and the half-inhibitory concentration (IC50) is 18.6 µM. In the same order, the values of `O=C(O)CCCCCCCCCCCCCCC(=O)O` are more than 18.2 µM and more than 18.2 µM. `CN(C)c1ccc(/C=C2\CCOC2=O)cc1`: the EC50 was more than 17.4 µM and the half-inhibitory concentration (IC50) was more than 17.4 µM. Take `COC(=O)[C@@H]1c2[nH]c3ccccc3c2C[C@@H]2c3ccccc3NC(=O)[C@@H]21`: the EC50 was more than 42.7 µM and the concentration for half-maximal inhibition (IC50) is more than 42.7 µM. In the case of `[N-]=[N+]=NC1CC(n2cc(Cc3cccc(OCc4ccccc4)c3)c(=O)[nH]c2=O)OC1CO` (configuration not stated), the result was inactive. In the case of `C/C(=C\[C@H]1C[C@@H]([C@@H]2CC[C@]34C[C@]23C=C[C@@H]2[C@@]3(C)CC=C5C[C@@H](c6ccccc6)OC[C@]5(C)[C@@H]3C[C@@H](O)[C@]24C)C(=O)O1)CO`, the EC50 was more than 200 µM and the concentration for half-maximal inhibition (IC50) was found to be 1.1 µM. With `Cc1ccc(C2(O)c3ccccc3C(=O)N(C)C2(O)c2ccc(C)cc2)cc1` (configuration not stated), the EC50 is more than 200 µM and the IC50 is 12.9 µM.

Turning to `COc1cccc2c1C(=O)c1c(O)c3c(c(O)c1C2=O)C[C@@](O)(C(=O)CO)C[C@@H]3OC1CC(N2CCOCC2C#N)C(O)C(C)O1` (some centres not stated), the EC50 is more than 15.5 µM and the IC50 stood at 0.00501 µM. On to `CCCCc1ccc(Nc2nc(Cl)c3c(ncn3C3CC(Oc4ccc(C)cc4)C(COc4ccc(C)cc4)O3)n2)cc1` (configuration not stated), for which the EC50 is more than 200 µM and the IC50 was more than 200 µM. Turning to `CCOC(=O)C(=CNc1cccc(NC=C(C(=O)OCC)C(=O)OCC)c1)C(=O)OCC`, the EC50 was more than 200 µM and the IC50 is 19.1 µM.

For `COC(=O)/C=c1\sc2n(c1=O)CCCCN=2`, the EC50 was more than 417 µM and the IC50 was 240 µM.

For the compound `COc1cc2c(cc1OC)C(Cc1cc(Br)c(OC)c(OC)c1)=[N+](C)CC2`, the EC50 is more than 447 µM and the IC50 was 33.9 µM. For `CCOC(=O)CSc1cc(C)c2c(N)c(C(=O)OCC)sc2n1` the same measures were more than 72.4 µM and more than 72.4 µM.

Consider `O=C(O)c1cc(I)cc(I)c1O`, for which the EC50 was more than 646 µM and the half-maximal inhibitory concentration (IC50) stood at 107 µM. Regarding `C=CC(=O)N1C/C(=C\c2ccc(Cl)cc2)C(=O)/C(=C/c2ccc(Cl)cc2)C1`, the EC50 was more than 0.2 µM and the IC50 was found to be 0.0708 µM. In the same order, the values of `Nc1nn2c(=O)c3ccccc3nc2s1` are more than 200 µM and 89.1 µM. For `COc1ccc(OC)c(NC(=S)N/N=C/c2cccc3ccccc23)c1` the same measures were more than 200 µM and 1.05 µM. As to `Cc1nn(C(=O)c2ccccc2O)c2c1C(c1ccc3ccccc3c1O)SC(N)=N2` (configuration not stated), the EC50 was more than 2 µM and the IC50 was 1.38 µM. For the compound `Oc1ccc(Br)cc1C=Nc1c(NC2CCCCC2)oc2ccc(Br)cc12`, the outcome was inactive. In the case of `COc1nc(N)c(NC2OCC(O)C(O)C2O)c(=O)n1C` (configuration not stated), the EC50 is 195 µM and 182 µM and > 200 µM; the half-maximal inhibitory concentration (IC50) was 603 µM and 224 µM and > 200 µM. In the case of `CC(C)(C)N/N=C(\C(=O)Nc1ccc([N+](=O)[O-])cc1[N+](=O)[O-])c1nc2ccc([N+](=O)[O-])cc2[nH]c1=O`, the EC50 is more than 14.5 µM and the half-inhibitory concentration (IC50) is more than 14.5 µM.
